Results taken from patent US9695155B2, “Herbicidal substituted pyrimidinyloxy benzene compounds” (E. I. DU PONT DE NEMOURS AND COMPANY, priority 2013, dated 2017).

Legend:
[1] = test system: corn; experiment: Test C postemergence; type: in vivo, Zea mays
Outline: (§1)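 Plants were kept under greenhouse conditions for 13–15 days following spray. Pre-emergent application went to soil (loam–sand), post-emergent to foliage at 1–4 leaves. Evaluation: visual, percent control against untreated checks.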

[2] = test system: large (Lg) crabgrass; experiment: Test C postemergence; type: in vivo, Digitaria sanguinalis
Outline: as §1

[3] = test system: morningglory; experiment: Test A postemergence; type: in vivo, Ipomoea spp.; conditions: 0 to 100 scale where 0 is no effect and 100 is complete control
Outline: (§2)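 Compounds in non-phytotoxic solvent with surfactant applied as soil spray preemergence, or postemergence to plants 2-10 cm at one- to two-leaf stage, in loam/sand. After approximately 10 days in greenhouse, injury rated visually versus untreated controls, 0 (no effect) to 100 (complete control).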

[4] = test system: Italian ryegrass; experiment: Test C postemergence; type: in vivo, Lolium multiflorum
Outline: as §1

[5] = test system: blackgrass; experiment: Test C postemergence; type: in vivo, Alopecurus myosuroides
Outline: as §1

[6] = test system: johnsongrass; experiment: Test C postemergence; type: in vivo, Sorghum halepense
Outline: as §1

[7] = test system: yellow nutsedge; experiment: Test C postemergence; type: in vivo, Cyperus esculentus
Outline: as §1

[8] = test system: wild oat; experiment: Test C postemergence; type: in vivo, Avena fatua
Outline: as §1

[9] = test system: giant foxtail; experiment: Test C postemergence; type: in vivo, Setaria faberii
Outline: as §1

[10] = test system: velvetleaf; experiment: Test A preemergence; type: in vivo, Abutilon theophrasti
Outline: as §2

[11] = test system: morningglory; experiment: Test A preemergence; type: in vivo, Ipomoea spp.
Outline: as §2

[12] = test system: giant foxtail; experiment: Test A preemergence; type: in vivo, Setaria faberii
Outline: as §2

[13] = test system: waterhemp; experiment: Test C postemergence; type: in vivo, Amaranthus rudis
Outline: as §1

[14] = test system: large (Lg) crabgrass; experiment: Test A preemergence; type: in vivo, Digitaria sanguinalis
Outline: as §2

[15] = test system: chickweed; experiment: Test C postemergence; type: in vivo, Stellaria media
Outline: as §1

[16] = 16 g ai/ha, postemergence, 0 is no effect, 100 is complete control
[17] = 31 g ai/ha, postemergence, visual rating, scale 0 to 100 (0 no effect, 100 complete control), 13 to 15 days
[18] = 125 g ai/ha, postemergence, visual rating, scale 0 to 100 (0 no effect, 100 complete control)
[19] = Postemergence, 62 g ai/ha, scale 0 to 100 (0 no effect, 100 complete control), 13 to 15 days
[20] = 500 g ai/ha, 0 to 100 scale where 0 is no effect and 100 is complete control

Clc1cnc(Oc2cccc(Cl)c2-n2cc(Cl)cn2)nc1 [Compound 220]
35: Plant response rating, Oat, Wild [8, 19]
5: Plant response rating (0 to 100), Corn [1, 16] | Plant response rating (0 to 100), Crabgrass, Large [2, 16] | Crabgrass, Large plant response rating [2, 17] | Plant response rating, Crabgrass, Large [2, 18] | Plant response rating, Crabgrass, Large [2, 19] | Plant response rating, Ryegrass, Italian [4, 19] | Plant response rating (0 to 100), Johnsongrass [6, 16] | Plant response rating, Johnsongrass [6, 18] | Plant response rating, Johnsongrass [6, 19] | Plant response rating, Nutsedge, Yellow [7, 18] | Plant response rating (0 to 100), Oat, Wild [8, 16] | Foxtail, Giant plant response rating [9, 17] | Plant response rating, Foxtail, Giant [9, 18]
25: Oat, Wild plant response rating [8, 17]
20: Velvetleaf plant response rating (0 to 100 scale) ([10]; 125 g ai/ha)
100: Plant response rating, Morningglory ([3]; 500 g ai/ha) | Foxtail, Giant plant response rating (0 to 100 scale) ([12]; 125 g ai/ha) | Foxtail, Giant plant response rating [12, 20] | Crabgrass, Large plant response rating (0 to 100 scale) ([14]; 125 g ai/ha) | Crabgrass, Large plant response rating [14, 20]
80: Plant response rating, Chickweed [15, 18] | Plant response rating, Chickweed [15, 19]
50: Morningglory plant response rating ([3]; 125 g ai/ha) | Plant response rating, Blackgrass [5, 18] | Plant response rating, Oat, Wild [8, 18]
70: Velvetleaf plant response rating [10, 20] | Waterhemp plant response rating [13, 17] | Chickweed plant response rating [15, 17]
40: Plant response rating, Blackgrass [5, 19] | Morningglory plant response rating [11, 20]
65: Plant response rating (0 to 100), Waterhemp [13, 16] | Plant response rating (0 to 100), Chickweed [15, 16]
10: Corn plant response rating [1, 17] | Plant response rating, Corn [1, 18] | Plant response rating, Corn [1, 19] | Plant response rating, Ryegrass, Italian [4, 18] | Plant response rating (0 to 100), Nutsedge, Yellow [7, 16] | Plant response rating, Foxtail, Giant [9, 19]
0: Plant response rating (0 to 100), Ryegrass, Italian [4, 16] | Ryegrass, Italian plant response rating [4, 17] | Plant response rating (0 to 100), Blackgrass [5, 16] | Johnsongrass plant response rating [6, 17] | Nutsedge, Yellow plant response rating [7, 17] | Plant response rating, Nutsedge, Yellow [7, 19] | Plant response rating (0 to 100), Foxtail, Giant [9, 16] | Morningglory plant response rating (0 to 100 scale) ([11]; 125 g ai/ha)
60: Blackgrass plant response rating [5, 17]
85: Plant response rating, Waterhemp [13, 18]
75: Plant response rating, Waterhemp [13, 19]
